Data from PubChem BioAssay (NCI).
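Interpolation was linear, between the two tested concentrations surrounding the appropriate level; five concentrations were tested over 48 hours in 96-well plates. TGI: concentration producing complete growth inhibition.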

Columns and labels:
Assay in all cases: NCI anticancer screen, dose series, 48 h
HCT-15 colon = system: HCT-15 colon
MALME-3M melanoma = system: MALME-3M melanoma
MDA-N = system: MDA-N
NCI-H460 lung = system: NCI-H460 lung
NCI-H522 lung = system: NCI-H522 lung
OVCAR-8 ovarian = system: OVCAR-8 ovarian
PC-3 prostate = system: PC-3 prostate
SNB-19 CNS = system: SNB-19 CNS
T-47D breast = system: T-47D breast
U251 CNS = system: U251 CNS
HOP-92 NSCLC = system: HOP-92 NSCLC
OVCAR-4 ovarian = system: OVCAR-4 ovarian

Compound	TGI (HCT-15 colon) [µM]	TGI (MALME-3M melanoma) [µM]	TGI (MDA-N) [µM]	TGI (NCI-H460 lung) [µM]	TGI (NCI-H522 lung) [µM]	TGI (OVCAR-8 ovarian) [µM]	TGI (PC-3 prostate) [µM]	TGI (SNB-19 CNS) [µM]	TGI (T-47D breast) [µM]	TGI (U251 CNS) [µM]	TGI (HOP-92 NSCLC) [µM]	TGI (OVCAR-4 ovarian) [µM]
NCCCNCCCCN1CCOC1=O	> 100	> 100	> 100	> 100	> 100	> 100	> 100	> 100	> 100	> 100	–	–
CCOC(=O)C(NC(=O)c1ccccc1)(N1CCN(c2cc3c(cc2F)c(=O)c(C(=O)O)cn3C2CC2)CC1)C(F)(F)F (stereo not given)	–	39.3	46.8	44.6	–	> 100	60.2	> 100	46.1	> 100	38	63.4
Cc1cc(C)nc(NC(P(=O)(O)O)P(=O)(O)O)n1	> 100	> 100	> 100	> 100	> 100	> 100	> 100	> 100	–	–	–	–
C[n+]1c2ccccc2c(NC(CCCN=C(N)N)C(=O)O)c2ccccc21 (stereo not given)	> 100	> 100	–	> 100	> 100	> 100	–	> 100	–	> 100	> 100	> 100
COc1cccc(CC(=O)N2CCN(CCCc3ccccc3)CC2)c1	> 100	–	> 100	> 100	> 100	> 100	> 100	> 100	89.9	> 100	> 100	> 100
C=C1CC[C@H]2C(=O)OC(c3ccoc3)C[C@]2(C)C/C=C\C=C/1C(=O)OC (stereo not given in full)	> 25	> 25	> 25	> 25	–	> 25	> 25	> 25	–	> 25	> 25	> 25
CCCCCCc1cc2cc(C(=O)Nc3ccc(F)cc3)c(=N)oc2cc1O	7.62	> 100	28.1	> 100	6.13	3.75	13.5	25.3	–	8.64	–	23.2
O=Cc1ccc(-c2ccc(-c3ccc(CO)s3)o2)s1	> 100	> 66.8	–	3.21	47.7	49	> 100	> 100	62.3	> 42.1	61.5	> 100
COc1cc2nc(-c3cccs3)nc(Cl)c2cc1OC	> 100	> 100	–	> 100	> 100	> 100	> 100	> 100	> 100	> 100	–	> 100
Cc1ccc(S(=O)(=O)C2=C(C(C)C)N=NC2(C)C)cc1	> 100	–	> 100	> 100	> 100	> 100	> 100	> 100	> 100	> 100	69.6	> 100
